# “And” between values parts separate entries of the source, which are not always exact repeats. Identical values can stand only once. Non-standard residues stand in square brackets, D forms with d. Residues, ends and D or L forms follow the SMILES beside them. ξ: configuration not given here. Ile(3ξ) = CCC(C)[C@H](N)C(=O)O
# Target: T1, Pituitary adenylate cyclase-activating polypeptide (Rattus norvegicus, UniProt P13589)
# T1 sequence (P13589 whole entry): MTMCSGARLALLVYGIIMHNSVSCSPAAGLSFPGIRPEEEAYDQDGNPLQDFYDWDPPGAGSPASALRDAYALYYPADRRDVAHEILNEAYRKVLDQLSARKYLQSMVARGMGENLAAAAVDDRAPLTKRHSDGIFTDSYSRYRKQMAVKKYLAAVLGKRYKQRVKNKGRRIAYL
row,SMILES,Ki
1,[C][C][C]([C])[C@H]([N]C(=O)[C][N]C(=O)[C@H]([C][C]C([O])=O)[N]C(=O)[C@@H]([N])[C][O])C(=O)[N][C@@H]([C]c1ccccc1)C(=O)[N][C@H](C(=O)[N][C@@H]([C]C([O])=O)C(=O)[N][C@@H]([C][O])C(=O)[N][C@@H]([C]c1ccc([O])cc1)C(=O)[N][C@@H]([C][O])C(=O)[N][C@@H]([C][C][C]N=C([N])[N])C(=O)[N][C@@H]([C]c1ccc([O])cc1)C(=O)[N][C@@H]([C][C][C]N=C([N])[N])C(=O)[N][C@@H]([C][C][C][C][N])C(=O)[N][C@@H]([C][C]C([N])=O)C(=O)[N][C@@H]([C][C]S[C])C(=O)[N][C@@H]([C])C(=O)[N][C@@H]([C]([C])[C])C(=O)[N][C@@H]([C][C][C][C][N])C(=O)[N][C@@H]([C][C][C][C][N])C(=O)[N][C@@H]([C]c1ccc([O])cc1)C(=O)[N][C@@H]([C][C]([C])[C])C(=O)[N][C@@H]([C])C(=O)[N][C@@H]([C])C(=O)[N][C@@H]([C]([C])[C])C(=O)[N][C@@H]([C][C]([C])[C])C([N])=O)[C@@H]([C])[O] [PACAP(2-27)],5 nM
2,CC[C@H](C)[C@H](NC(=O)CNC(=O)[C@H](CCC(=O)O)NC(=O)[C@H](CO)NC(=O)[C@@H](N)Cc1cnc[nH]1)C(=O)N[C@@H](Cc1ccccc1)C(=O)N[C@H](C(=O)N[C@@H](CC(=O)O)C(=O)N[C@@H](CO)C(=O)N[C@@H](Cc1ccc(O)cc1)C(=O)N[C@@H](CO)C(=O)N[C@@H](CCCNC(=N)N)C(=O)N[C@@H](Cc1ccc(O)cc1)C(=O)N[C@@H](CCCNC(=N)N)C(=O)N[C@@H](CCCCN)C(=O)N[C@@H](CCC(N)=O)C(=O)N[C@@H](CCSC)C(=O)N[C@@H](C)C(=O)N[C@H](C(=O)N[C@@H](CCCCN)C(=O)N[C@@H](CCCCN)C(=O)N[C@@H](Cc1ccc(O)cc1)C(=O)N[C@@H](CC(C)C)C(=O)N[C@@H](C)C(=O)N[C@@H](C)C(=O)N[C@H](C(=O)N[C@@H](CC(C)C)C(N)=O)C(C)C)C(C)C)[C@@H](C)O [PACAP(1-27)],0.08 nM
3,CCC(C)[C@H](NC(=O)CNC(=O)[C@@H](N)CC(=O)O)C(=O)N[C@@H](Cc1ccccc1)C(=O)N[C@H](C(=O)N[C@@H](CC(=O)O)C(=O)N[C@@H](CO)C(=O)N[C@@H](Cc1ccc(O)cc1)C(=O)N[C@@H](CO)C(=O)N[C@@H](CCCN=C(N)N)C(=O)N[C@@H](Cc1ccc(O)cc1)C(=O)N[C@@H](CCCN=C(N)N)C(=O)N[C@@H](CCCCN)C(=O)N[C@@H](CCC(N)=O)C(=O)N[C@@H](CCSC)C(=O)N[C@@H](C)C(=O)N[C@H](C(=O)N[C@@H](CCCCN)C(=O)N[C@@H](CCCCN)C(=O)N[C@@H](Cc1ccc(O)cc1)C(=O)N[C@@H](CC(C)C)C(=O)N[C@@H](C)C(=O)N[C@@H](C)C(=O)N[C@H](C(=O)N[C@@H](CC(C)C)C(N)=O)C(C)C)C(C)C)[C@@H](C)O (stereo partly drawn) [PACAP(3-27)] (H-DG[Ile(3ξ)]FTDSYSRYRKQMAVKKYLAAVL-NH2),500 nM and 400 nM
4,CCC(C)[C@H](NC(=O)CNC(=O)[C@@H](N)CC(=O)O)C(=O)N[C@@H](Cc1ccccc1)C(=O)N[C@H](C(=O)N[C@@H](CC(=O)O)C(=O)N[C@@H](CO)C(=O)N[C@@H](Cc1ccc(O)cc1)C(=O)N[C@@H](CO)C(=O)N[C@@H](CCCN=C(N)N)C(=O)N[C@@H](Cc1ccc(O)cc1)C(=O)N[C@@H](CCCN=C(N)N)C(=O)N[C@@H](CCCCN)C(=O)N[C@@H](CCC(N)=O)C(=O)N[C@@H](CCSC)C(=O)N[C@@H](C)C(=O)N[C@H](C(=O)N[C@@H](CCCCN)C(=O)N[C@@H](CCCCN)C(=O)N[C@@H](Cc1ccc(O)cc1)C(=O)N[C@@H](CC(C)C)C(=O)N[C@@H](C)C(=O)N[C@@H](C)C(=O)N[C@H](C(=O)N[C@@H](CC(C)C)C(=O)NCC(=O)N[C@@H](CCCCN)C(=O)N[C@@H](CCCN=C(N)N)C(=O)N[C@@H](Cc1ccc(O)cc1)C(=O)N[C@@H](CCCCN)C(=O)N[C@@H](CCC(N)=O)C(=O)N[C@@H](CCCN=C(N)N)C(=O)N[C@H](C(=O)N[C@@H](CCCCN)C(=O)N[C@@H](CC(N)=O)C(=O)N[C@@H](CCCCN)C(N)=O)C(C)C)C(C)C)C(C)C)[C@@H](C)O (stereo partly drawn) [PACAP(3-38)] (H-DG[Ile(3ξ)]FTDSYSRYRKQMAVKKYLAAVLGKRYKQRVKNK-NH2),300 nM
5,CCC(C)[C@H](NC(=O)CNC(=O)[C@H](CC(=O)O)NC(=O)[C@@H](N)CO)C(=O)N[C@@H](Cc1ccccc1)C(=O)N[C@H](C(=O)N[C@@H](CC(=O)O)C(=O)N[C@@H](CO)C(=O)N[C@@H](Cc1ccc(O)cc1)C(=O)N[C@@H](CO)C(=O)N[C@@H](CCCN=C(N)N)C(=O)N[C@@H](Cc1ccc(O)cc1)C(=O)N[C@@H](CCCN=C(N)N)C(=O)N[C@@H](CCCCN)C(=O)N[C@@H](CCC(N)=O)C(=O)N[C@@H](CCSC)C(=O)N[C@@H](C)C(=O)N[C@H](C(=O)N[C@@H](CCCCN)C(=O)N[C@@H](CCCCN)C(=O)N[C@@H](Cc1ccc(O)cc1)C(=O)N[C@@H](CC(C)C)C(=O)N[C@@H](C)C(=O)N[C@@H](C)C(=O)N[C@H](C(=O)N[C@@H](CC(C)C)C(=O)NCC(=O)N[C@@H](CCCCN)C(=O)N[C@@H](CCCN=C(N)N)C(=O)N[C@@H](Cc1ccc(O)cc1)C(=O)N[C@@H](CCCCN)C(=O)N[C@@H](CCC(N)=O)C(=O)N[C@@H](CCCN=C(N)N)C(=O)N[C@H](C(=O)N[C@@H](CCCCN)C(=O)N[C@@H](CC(N)=O)C(=O)N[C@@H](CCCCN)C(N)=O)C(C)C)C(C)C)C(C)C)[C@@H](C)O (stereo partly drawn) [PACAP(2-38)] (H-SDG[Ile(3ξ)]FTDSYSRYRKQMAVKKYLAAVLGKRYKQRVKNK-NH2),5 nM and 8 nM
6,CC[C@H](C)[C@H](NC(=O)[C@H](CO)NC(=O)[C@H](CC(N)=O)NC(=O)[C@H](CC(C)C)NC(=O)[C@H](Cc1ccc(O)cc1)NC(=O)[C@H](CCCCN)NC(=O)[C@H](CCCCN)NC(=O)[C@@H](NC(=O)[C@H](C)NC(=O)[C@H](CCSC)NC(=O)[C@H](CCC(N)=O)NC(=O)[C@H](CCCCN)NC(=O)[C@H](CCCN=C(N)N)NC(=O)[C@H](CC(C)C)NC(=O)[C@H](CCCN=C(N)N)NC(=O)[C@@H](NC(=O)[C@H](Cc1ccc(O)cc1)NC(=O)[C@H](CC(N)=O)NC(=O)[C@H](CC(=O)O)NC(=O)[C@@H](NC(=O)[C@H](Cc1ccccc1)NC(=O)[C@@H](NC(=O)[C@H](C)NC(=O)[C@H](CC(=O)O)NC(=O)[C@H](CO)NC(=O)[C@@H](N)Cc1cnc[nH]1)C(C)C)[C@@H](C)O)[C@@H](C)O)C(C)C)C(=O)N[C@@H](CC(C)C)C(=O)N[C@@H](CC(N)=O)C(=O)O [CAS_37221-79-7],80 nM

# Other lines, results leading:
row,Ki,SMILES
1,0.1 nM,CC[C@H](C)[C@H](NC(=O)CNC(=O)[C@H](CC(=O)O)NC(=O)[C@H](CO)NC(=O)[C@@H](N)Cc1cnc[nH]1)C(=O)N[C@@H](Cc1ccccc1)C(=O)N[C@H](C(=O)N[C@@H](CC(=O)O)C(=O)N[C@@H](CO)C(=O)N[C@@H](Cc1ccc(O)cc1)C(=O)N[C@@H](CO)C(=O)N[C@@H](CCCNC(=N)N)C(=O)N[C@@H](Cc1ccc(O)cc1)C(=O)N[C@@H](CCCNC(=N)N)C(=O)N[C@@H](CCCCN)C(=O)N[C@@H](CCC(N)=O)C(=O)N[C@@H](CCSC)C(=O)N[C@@H](C)C(=O)N[C@H](C(=O)N[C@@H](CCCCN)C(=O)N[C@@H](CCCCN)C(=O)N[C@@H](Cc1ccc(O)cc1)C(=O)N[C@@H](CC(C)C)C(=O)N[C@@H](C)C(=O)N[C@@H](C)C(=O)N[C@H](C(=O)N[C@@H](CC(C)C)C(=O)NCC(=O)N[C@@H](CCCCN)C(=O)N[C@@H](CCCNC(=N)N)C(=O)N[C@@H](Cc1ccc(O)cc1)C(=O)N[C@@H](CCCCN)C(=O)N[C@@H](CCC(N)=O)C(=O)N[C@@H](CCCNC(=N)N)C(=O)N[C@H](C(=O)N[C@@H](CCCCN)C(=O)N[C@@H](CC(N)=O)C(=O)N[C@@H](CCCCN)C(N)=O)C(C)C)C(C)C)C(C)C)[C@@H](C)O [PACAP]
2,8 nM and 10 nM,CSCC[C@H](NC(=O)[C@H](CCC(N)=O)NC(=O)[C@H](CCCCN)NC(=O)[C@H](CCCNC(=N)N)NC(=O)[C@H](Cc1ccc(O)cc1)NC(=O)[C@H](CCCNC(=N)N)NC(=O)[C@H](CO)NC(=O)[C@H](Cc1ccc(O)cc1)NC(=O)[C@H](CO)NC(=O)[C@H](CC(=O)O)NC(=O)[C@@H](NC(=O)[C@@H](N)Cc1ccccc1)[C@@H](C)O)C(=O)N[C@@H](C)C(=O)N[C@H](C(=O)N[C@@H](CCCCN)C(=O)N[C@@H](CCCCN)C(=O)N[C@@H](Cc1ccc(O)cc1)C(=O)N[C@@H](CC(C)C)C(=O)N[C@@H](C)C(=O)N[C@@H](C)C(=O)N[C@H](C(=O)N[C@@H](CC(C)C)C(=O)NCC(=O)N[C@@H](CCCCN)C(=O)N[C@@H](CCCNC(=N)N)C(=O)N[C@@H](Cc1ccc(O)cc1)C(=O)N[C@@H](CCCCN)C(=O)N[C@@H](CCC(N)=O)C(=O)N[C@@H](CCCNC(=N)N)C(=O)N[C@H](C(=O)N[C@@H](CCCCN)C(=O)N[C@@H](CC(N)=O)C(=O)N[C@@H](CCCCN)C(N)=O)C(C)C)C(C)C)C(C)C

# Source: BindingDB's records for doi:10.1016/0922-4106(95)90037-3 (Universit&Eacute, 1995)
